Data reported in publication PMC9445041, “Development of a red fluorescent protein-based cGMP indicator applicable for live-cell imaging” (Communications Biology, 2022).

Target: T1, Red cGull (Mus musculus, UniProt Q8CG03)
T1 construct: gene Pde5a; N-terminal mouse APP fragment (aa 190-286) fused for bacterial expression; purified on Ni-NTA from E. coli JM109(DE3)
Test: fluorescence intensity dose-response, four-parameter logistic fit
Type: binding

T1 sequence (Q8CG03 164-298): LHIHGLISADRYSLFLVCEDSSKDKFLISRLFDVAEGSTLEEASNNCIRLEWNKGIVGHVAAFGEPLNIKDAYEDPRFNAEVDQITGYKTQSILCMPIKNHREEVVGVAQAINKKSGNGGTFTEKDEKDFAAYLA

An EC50 of 330 nM was found for `Nc1nc2c(ncn2[C@@H]2O[C@@H]3COP(=O)(O)O[C@H]3[C@H]2O)c(=O)[nH]1` [cGMP] in this work.
